In patent publication US8323911B2, “High throughput assay for discovering new inhibitors of the GIRK1/4 channel” (University of South Carolina, priority 2010, dated 2012):
Values belong to the compound of their own block, whether it stands above or below them. Ends that are not written are not given here.

Legend:
IK,Ach (GIRK1/4 channel) = target: T1, IK,Ach (GIRK1/4 channel) (Mus musculus, UniProt P48545+P63250); assay: Patch-clamp recording of whole-cell IK,Ach currents in HL-1 cells; type: cell-based
T1 construct: consistent with the expression of GIRK1/4 channels in the HL-1 cells; endogenous in cells; host or cells: HL-1 immortalized cardiac atrial cells
T1 sequence (P63250 1-501): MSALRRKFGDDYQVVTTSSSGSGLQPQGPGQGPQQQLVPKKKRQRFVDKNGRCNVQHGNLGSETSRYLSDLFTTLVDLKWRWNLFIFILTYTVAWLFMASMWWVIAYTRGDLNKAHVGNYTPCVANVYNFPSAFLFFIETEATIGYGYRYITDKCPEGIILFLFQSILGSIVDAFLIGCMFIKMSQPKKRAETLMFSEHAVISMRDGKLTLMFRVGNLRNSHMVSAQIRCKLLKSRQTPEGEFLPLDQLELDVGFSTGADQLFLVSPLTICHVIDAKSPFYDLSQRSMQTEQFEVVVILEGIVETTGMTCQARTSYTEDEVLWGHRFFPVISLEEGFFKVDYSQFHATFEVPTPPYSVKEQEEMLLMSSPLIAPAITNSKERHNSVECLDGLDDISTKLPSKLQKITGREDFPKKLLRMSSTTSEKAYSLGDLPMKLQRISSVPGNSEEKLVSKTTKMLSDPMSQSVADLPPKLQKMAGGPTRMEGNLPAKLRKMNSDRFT
T1 sequence (P48545 1-419): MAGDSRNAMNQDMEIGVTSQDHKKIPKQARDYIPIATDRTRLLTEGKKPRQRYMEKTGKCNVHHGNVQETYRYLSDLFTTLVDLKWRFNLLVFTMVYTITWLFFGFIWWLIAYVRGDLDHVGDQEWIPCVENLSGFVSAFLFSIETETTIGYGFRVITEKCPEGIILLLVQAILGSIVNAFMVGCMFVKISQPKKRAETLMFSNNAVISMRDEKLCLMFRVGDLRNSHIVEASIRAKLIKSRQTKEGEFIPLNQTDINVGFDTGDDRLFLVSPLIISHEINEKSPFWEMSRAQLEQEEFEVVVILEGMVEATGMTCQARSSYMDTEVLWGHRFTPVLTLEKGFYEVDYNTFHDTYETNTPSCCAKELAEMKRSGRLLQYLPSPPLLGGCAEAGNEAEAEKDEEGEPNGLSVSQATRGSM
Source text: A patch-clamp method was used to record the whole-cell IK,Ach using L/M EPC-7 (Adams & List Associates, Great Neck, N.Y.) and Axopatch 200 (Axon Instruments, Sunnyvale, Calif.) amplifiers. The procedures for measuring cardiac K^+ channels have been described in Walsh K B, Zhang J: Neonatal rat cardiac fibroblasts express three types of voltage-gated K^+ channels: regulation of a transient outward current by protein kinase C, Am J Physiol Heart Circ Physiol 2008; 294:H1010-H1017, incorporated by reference herein. Pipettes were made from borosilicate glass capillaries (World Precision Instruments, Sarasota, Fla.) and had resistances of 1 to 2 Mohms when filled with internal solution. All experiments were conducted on isolated, noncoupled HL-1 cells at room temperature (22-24° C.). For the measurement of IK,Ach, cells were placed in a normal Tyrode's solution consisting of 132 mM NaCl, 5 mM KCl, 1 mM CaCl2, 1 mM MgCl2, 5 mM dextrose, and 5 mM HEPES (pH 7.4; with NaOH) (280 mOsm). INa was blocked with tetrodotoxin (10 μM) and the Na^+ channels inactivated by maintaining the myocytes at a holding potential of −40 mV. L-type Ca^2+ channels were blocked with 500 nM nisoldipine. The internal solution was made from 50 mM KCl, 60 mM K^+-glutamate, 2 mM MgCl2, 1 mM CaCl2, 11 mM EGTA, 3 mM adenosine triphosphate (ATP), and 10 mM HEPES (pH 7.3; with KOH) (280 mOsm).
Membrane currents were recorded with 12-bit analog/digital converters (Axon Instruments). Data were sampled at 5 KHz and filtered at 1 KHz with a low-pass Bessel filter (Frequency Devices, Ottawa, Ill.). Series resistance was compensated to give the fastest possible capacity transient without producing oscillations. With this procedure, more than 70% of the series resistance could be compensated. Following the measurement of the HL-1 cell background current, IK,Ach was activated by the addition 10 μM carbachol using a rapid perfusion system. IK,Ach was defined as the BaCl2-sensitive current (see FIGS. 1A-1C, illustrating expression of GIRK1/4 channels in HL-1 cells). IK,Ach blockers were added and inhibition determined immediately after carbachol-induced activation. This limited errors in quantifying drug block due to GIRK1/4 channel desensitization and rundown. Averaged current values presented are means±SE.

GIRK1/4 channel = target: T2, GIRK1/4 channel (Mus musculus, UniProt P48545+P63250); assay: GIRK1/4 channel FLIPR assay (DiBAC4(3) fluorescence, carbachol-stimulated HL-1 cells); type: cell-based; conditions: for IC50: 5 min pretreatment, read-out: IC50 for drug block of the carbachol signal; for block of the carbachol-sensitive fluorescence signal: at the concentrations tested; for inhibition of the carbachol signal during pretreatment: 1 μM
T2 construct: consistent with the expression of GIRK1/4 channels in the HL-1 cells; endogenous in cells; host or cells: HL-1 immortalized cardiac atrial cells
T2 sequence (P63250 1-501): T1 sequence (P63250 1-501)
T2 sequence (P48545 1-419): T1 sequence (P48545 1-419)
Experimental: HL-1 cells were incubated for 1 h in Tyrode's solution containing 5 μM DiBAC4(3) (AnaSpec, Fremont, Calif.) and fluorescent signals recorded using a Synergy2 microplate reader (BioTek, Winosski, Vt.) at 28° C. Test compounds were dissolved in DMSO at a stock concentration of 10 mM, diluted to various concentrations, and applied to the cells for 5 min prior to the fluorescent measurements. DiBAC4(3) was present in all experimental solutions. DMSO, up to 1% in Tyrode's solution, had no adverse effects on the cell response. Carbachol or control solution (20 μL) was added to each well (total volume=220 μL) at time zero using the Synergy2 injector system. Data points were collected at 10-s intervals over a 300-s sampling period at excitation and emission wavelengths of 480 and 520 nm, respectively. Positive (carbachol or carbachol+1 mM BaCl2) and negative (water or DMSO) control experiments were performed to calculate Z′ factors. The Z′ factor is defined as Z′=1=−(3σP+3σN)/|μP−μN|, where μP and μN are the means of the positive control and negative control signals, and σp and σN are the standard deviations of the positive control and negative control signals, respectively. Plates used for Z′ factor determination contained 2 rows each of positive and negative controls. Dose-response curves for selected compounds were obtained and drug potencies determined by fitting the data with the following curve: Max/(1+([drug]/IC50)^k), where the IC50 is the concentration of the compound producing a 50% decrease in the maximal carbachol response (Max), and k is the slope factor. Interference of the test compounds with the DiBAC4(3) fluorescence was determined in the absence of cells by adding various concentrations of the compounds to Tyrode's solution containing the dye.

GIRK channels = conditions: HEK-293 cells; cited from earlier work
IK,Ach = conditions: patch clamp analysis; read-out: IC50 measured in primary cultures of guinea pig atrial myocytes; cited from earlier work

Compound: tertiapin (ALCNCNRIIIPHMCWKKCGKK; ends and bridges not checked; cysteine pairing not given here; UniProt P56587 1-21, looked up) [Kir toxin]
block of IK,Ach current (IK,Ach (GIRK1/4 channel); 100 nM): strongly blocked

IC50 (GIRK1/4 channel; HL-1 cells, DiBAC4(3)): 2 µM
Compound: CC(C)(C)NCC(O)COc1ccccc1C(=O)CCc1ccccc1 (centres unmarked) [TBPP, 1-{2-[3-(tert-butylamino)-2-hydroxypropoxy]phenyl}-3-phenyl-1-propanone]

IC50 (GIRK1/4 channel; HL-1 cells, DiBAC4(3)): 0.8 µM
Compound: CCN(c1nc(N)c(C(=O)N=C(N)N)nc1Cl)C(C)C [EIPA, 5-(N-ethyl-N-isopropyl)-amiloride]

Compound: COc1ccc(CC(=O)Nc2cc3c(cc2[N+](=O)[O-])OC(C)(C)[C@H](O)[C@H]3NC2CC2)cc1 [NIP-142]
concentrations blocking GIRK channels (GIRK channels): nanomolar concentrations

IC50 (GIRK1/4 channel; HL-1 cells, DiBAC4(3)): 3 µM
IC50 (IK,Ach (GIRK1/4 channel); patch clamp, measured at −100 mV, 10 μM carbachol, read-out: IC50 for block of IK,Ach current): 2 µM
Compound: CCCNCC(O)COc1ccccc1C(=O)CCc1ccccc1 (centres unmarked) [propafenone]

IC50 (GIRK1/4 channel; HL-1 cells, DiBAC4(3)): 13 µM
Compound: NC(=Nc1ccccc1)NC(=O)c1nc(Cl)c(N)nc1N [phenamil]

change in the carbachol-sensitive fluorescence (GIRK1/4 channel; drug concentrations up to 1 μM): no significant change
Compound: [5-(2-methyl-5-fluorophenyl)furan-2-ylcarbonyl]guanidine [KR-32568]

IC50 (GIRK1/4 channel; HL-1 cells, DiBAC4(3)): 13 µM
Compound: NC(=NCc1ccccc1)NC(=O)c1nc(Cl)c(N)nc1N [benzamil]

Compound: CC(C)N(C)c1nc(N)c(C(=O)N=C(N)N)nc1Cl [MIBA, 5-(N-methyl-N-isopropyl)-amiloride]
IC50 (GIRK1/4 channel; HL-1 cells, DiBAC4(3)): 2 µM

block of the carbachol-sensitive signal (GIRK1/4 channel; concentrations up to 100 μM): only a partial block
Compound: N=C(N)NC(=O)c1nc(Cl)c(N)nc1N [amiloride]

block of the carbachol-sensitive fluorescence signal (GIRK1/4 channel): no block
Compound: CCN(CC)CCNC(=O)c1ccc(N)cc1 [procainamide]

Compound: CN1[C@@H]2C[C@@H](OC(=O)[C@H](CO)c3ccccc3)C[C@H]1[C@@H]1O[C@@H]12 [scopolamine]
inhibition of the carbachol signal during pretreatment (GIRK1/4 channel): inhibited

peak carbachol-induced fluorescent signal (F/FO) (GIRK1/4 channel; 10 μM carbachol, mean±SD, 4 plates): 0.956±0.008
EC50 (GIRK1/4 channel; HL-1 cells, DiBAC4(3), read-out: EC50 for the carbachol-sensitive fluorescent signal (activation of GIRK1/4 channel)): 0.11 µM
carbachol-mediated decrease in the fluorescent signal (GIRK1/4 channel; [K]o increased to 20 mM): completely eliminated
fold increase in the carbachol-sensitive signal (GIRK1/4 channel; extracellular K+ reduced from 5 mM to 1 mM, 3 plates): 2.0±0.1 fold
Compound: C[N+](C)(C)CCOC(N)=O [carbachol]

IC50 (GIRK1/4 channel; HL-1 cells, DiBAC4(3)): 56 µM
block of IK,Ach current (IK,Ach (GIRK1/4 channel); 100 μM): strongly blocked
Compound: O=C(NCC1CCCCN1)c1cc(OCC(F)(F)F)ccc1OCC(F)(F)F (centres unmarked) [flecainide]
IC50 (IK,Ach): 20 µM

block of the carbachol-sensitive fluorescence signal (GIRK1/4 channel): no block
Compound: CC(C)NCC(O)c1ccc(NS(C)(=O)=O)cc1 (centres unmarked) [sotalol]

Compound: CN1[C@@H]2CC[C@H]1C[C@@H](OC(=O)C(CO)c1ccccc1)C2 (some centres unmarked) [atropine]
inhibition of the carbachol signal during pretreatment (GIRK1/4 channel): inhibited

block of the carbachol-sensitive fluorescence signal (GIRK1/4 channel): no block
Compound: COc1ccc(Cl)cc1C(=O)NCCc1ccc(S(=O)(=O)NC(=O)NC2CCCCC2)cc1 [glybenclamide]

Compound: NC(N)=NC(=O)c1nc(Cl)c(N2CCCCCC2)nc1N [HMA, 5-(N,N-hexamethylene)-amiloride]
IC50 (GIRK1/4 channel; HL-1 cells, DiBAC4(3)): 0.9 µM

IC50 (GIRK1/4 channel; HL-1 cells, DiBAC4(3)): 16 µM
Compound: CCCCCCCN(CC)CCCC(O)c1ccc(NS(C)(=O)=O)cc1 (centres unmarked) [ibutilide]

IC50 (GIRK1/4 channel; HL-1 cells, DiBAC4(3)): 20 µM
Compound: N/C(=N\C(=O)c1nc(Cl)c(N)nc1N)NCc1ccc(Cl)c(Cl)c1 [DCB, dichlorobenzamil]

IC50 (GIRK1/4 channel; HL-1 cells, DiBAC4(3)): 24 µM
Compound: C=C[C@H]1C[N@@]2CC[C@H]1C[C@@H]2[C@@H](O)c1ccnc2ccc(OC)cc12 [quinidine]

Compound: [Ba+2].[Cl-].[Cl-] [BaCl2]
block of the carbachol signal (GIRK1/4 channel; 1 mM): blocked
block of carbachol-activated inward rectifying current (IK,Ach (GIRK1/4 channel); 0.5 mM BaCl2): completely blocked
